Earlier results, collected in US20150147356A1, “ANTIPYRETICS TO ENHANCE TOLERABILITY OF VESICLE-BASED VACCINES” (priority 2011, published 2015).
Where “and” joins values, the source holds several entries; their conditions need not be identical. Equal entries are not always repeated.

Legend:
[1] = in vivo
[2] = in vivo; remark: listed apart in the source

Row | Structure (SMILES) | duration of action [1] | Therapeutic blood level | half-life [2]
1 | CC(C)Cc1ccc(C(C)C(=O)O)cc1 (stereo not shown) [Ibuprofen, ibuprofen] | about 4 hours | 10-50 μg/ml and 49-243 μM | –
2 | CC(=O)Nc1ccc(O)cc1 [paracetamol, paracetamol (acetaminophen)] | – | 10-30 μg/ml and 66-199 μM | about 3 hours
